Source: paper PMC7385489, “β-hydroxybutyrate and hydroxycarboxylic acid receptor 2 agonists activate the AKT, ERK and AMPK pathways, which are involved in bovine neutrophil chemotaxis” (Scientific Reports, 2020)
pEC50: −log10 of the molar value.

Biological target: hydroxycarboxylic acid receptor 2 (HCA2) (Bos taurus, UniProt G3N168)
Assay: Fura-2 calcium mobilization in native bovine neutrophils expressing HCA2
Format: cell-based

hydroxycarboxylic acid receptor 2 (HCA2), sequence (G3N168 1-379): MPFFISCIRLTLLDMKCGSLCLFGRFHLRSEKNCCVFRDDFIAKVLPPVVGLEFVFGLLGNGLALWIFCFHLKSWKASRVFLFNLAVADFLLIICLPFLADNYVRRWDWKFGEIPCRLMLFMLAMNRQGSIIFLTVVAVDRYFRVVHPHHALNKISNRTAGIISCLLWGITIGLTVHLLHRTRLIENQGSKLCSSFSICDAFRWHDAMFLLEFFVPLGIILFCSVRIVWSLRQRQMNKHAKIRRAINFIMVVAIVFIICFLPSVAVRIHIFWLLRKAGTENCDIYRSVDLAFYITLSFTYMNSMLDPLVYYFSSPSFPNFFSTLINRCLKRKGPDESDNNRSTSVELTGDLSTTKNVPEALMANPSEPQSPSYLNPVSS

CC(O)CC(=O)O (stereo not drawn) [BHB, β-hydroxybutyrate]
pEC50: 2.58

O=C(O)c1n[nH]c2c1C[C@H]1C[C@@H]21 [MK-1903, (1aR,5aR)1a,3,5,5a-Tetrahydro-1H-2,3-diaza-cyclopropa[a]pentalene-4-carboxylic acid]
pEC50: 7.47
